# Data published in patent US20020051795A1, “ASCORBIC ACID AS AN ADJUVANT IN THE REMOVAL OF VASCULAR OCCLUSIONS” (priority 1997, published 2002).
# Test system: patients at risk for a vascular occlusion
# Experiment: ascorbic acid infusion as adjuvant to thrombolytic treatment (streptokinase or heparin) in patients, compared with patients receiving no ascorbic acid
# Assay type: in vivo, humans
# Settings: 20 patients; infusion of 70 ml of a 15% ascorbic acid solution diluted with physiological saline, pH 6.0 to 7.0, over four hours, with streptokinase (1.0×106 units) or heparin 2.5 mg/kg; versus equal number of patients with no ascorbic acid infusion but otherwise the same therapy
# Protocol: Treatment of a patient threatened by a vascular occlusion is administered, for example, by first giving the patient streptokinase (1.0×106 units) or heparin in a dose of 2.5 mg/kg […] in the form of an infusion over a period of 30 minutes. At the same time, the patient receives over a period of four hours an infusion of 70 ml of a 15% ascorbic acid solution diluted with physiological saline solution and adjusted to a pH of 6.0 to 7.0. The patient's condition is monitored continuously by an electrocardiogram. A group of 20 patients at risk for a vascular occlusion were treated by the procedure described above and compared with an equal number of patients receiving no ascorbic acid infusion during the operation but otherwise the same therapy.
smiles,measurement,value
O=C1O[C@H]([C@@H](O)CO)C(O)=C1O [ascorbic acid],complications during the operation and during the subsequent two-week observation phase,significantly fewer complications
